In US6436924B1, “Antihistamine leukotriene combinations” (ASTA Medica AG, priority 2000, dated 2002):

System: nasal mucosal permeability in actively sensitized and topically provoked brown Norway rats
Assay: Rhinitis model: nasal mucosal permeability (Evans Blue plasma extravasation) after ovalbumin provocation
Format: in vivo
Description: The following pharmacological investigation describes the action of azelastine and montelukast on their own and in combination on a rhinitis model on brown Norway rats. The brown Norway rats were actively sensitized by double i.p. injection of a suspension of ovalbumin and aluminum hydroxide in physiological saline solution on two successive days. Three weeks after sensitization, a catheter was tied into the trachea of the animals in orthograde manner under sodium thiopental anesthesia to maintain the respiration of the animals and a further catheter was advanced in a retrograde manner through the trachea up to the internal opening of the choanas for the perfusion of the nasal cavities and fixed. The nasal perfusate can thus trickle out through the nasal cavities and be accepted by a fraction collector. The test substances were either suspended in Tylose (montelukast) or dissolved in physiological saline solution (azelastine) and injected intraperitoneally 60 min before allergen provocation. PBS was perfused through the nasal cavity for 30 min using a roller pump (perfusion rate 0.5 ml/min) to rinse mucus away from the nose. In the case of topical application, the test substances are added to the perfusate in molar concentration and the solution is perfused through the nose for 30 min before allergen provocation. The plasma marker Evans Blue (1 ml/animal each of a 1% strength solution in PBS) was then injected into the jugular vein. The perfusion was collected during a 15 min break. The allergen provocation (challenge) was then carried out by perfusion of the nasal cavity with a solution of ovalbumin in PBS (10 mg/ml of ovalbumin in PBS) for 60 min, during which the perfusate was collected in the fraction collector in 15 min fractions. The total amount of the samples/animal was 5. The samples were centrifuged and then applied to microtiter plates and measured at a wavelength of 620 nm using the Digiscan photometer. The blank values were automatically subtracted. The course of action over 60 min was calculated using an AUC program. The substance action of the preparation group was calculated in % against vehicle controls.
An increased mucosal permeability after allergen provocation is to be assessed as a sign of the release of messengers such as histamine and leukotrienes. After antigen contact, this phenomenon occurs even in allergic people and is manifested by increased fluid secretion and nasal blockage.

[1] = 0.1 mg/kg i.p., 60 min before allergen provocation
[2] = 1 mg/kg i.p., 60 min before allergen provocation

In the case of `COc1ccc2c(c1)c(O)nn2Cc1ccc(OCc2ccc3ccccc3n2)cc1.Cl.Cl` [AWD 23-115, 1-[4-(quinolin-2-ylmethoxy)benzyl]-5-methoxy-1H-indazol-3-ol dihydrochloride], the “dose-dependent inhibition of the vascular permeability” value (dose range of 0.03 to 10 mg/kg i.p.) is reported as 37-54%, the “Inhibitory action in % (nasal mucosal permeability)” value (“Inhibitory action in %” below) (topical application in the perfusate, 0.1 mmol/l) is reported as 12% and the “Inhibitory action in %” value (topical application in the perfusate, 0.3 mmol/l) is reported as 32%. For the same molecule, the “Inhibitory action in %” value (topical application in the perfusate, 1 mmol/l) was 49%, the “inhibition of the vascular permeability” value (topical application, 0.3 μmol/l) was 32% and the “inhibition of the vascular permeability” value (topical application, 1 μmol/l) was 49%.

In the case of `CN1CCCC(n2nc(Cc3ccc(Cl)cc3)c3ccccc3c2=O)CC1` (centres unmarked) [Azelastine], the “Inhibitory action in %” value (0.01 mg/kg i.p., 60 min before allergen provocation) is reported as 11%, the “Inhibitory action in %” value [1] is reported as 39% and the “Inhibitory action in %” value (0.3 mg/kg i.p., 60 min before allergen provocation) is reported as 42%. The “Inhibitory action in %” value [2] was 47%, the “Inhibitory action in %” value (topical application in the perfusate, 0.003 mmol/l) was 3% and the “Inhibitory action in %” value (topical application in the perfusate, 0.01 mmol/l) was 40%. The “Inhibitory action in %” value (topical application in the perfusate, 0.03 mmol/l) was 60% and the “inhibition of the mucosal plasma extravasation” value (topical application, concentrations of 0.003 to 0.03 μmol/l) was “strong inhibition”.

For `O=C(O)[C@@H](c1ccc(OCc2ccc3ccccc3n2)cc1)C1CCCC1` [Bay X 1005], the “Inhibitory action in %” value [1] was 31%.

With `CC(C)(O)c1ccccc1CC[C@@H](SCC1(CC(=O)O)CC1)c1cccc(/C=C/c2ccc3ccc(Cl)cc3n2)c1` [Montelukast] the “Inhibitory action in %” value [1] was 7%, the “Inhibitory action in %” value [2] was 26% and the “Inhibitory action in %” value (3 mg/kg i.p., 60 min before allergen provocation) was 39%. For the same molecule, the “Inhibitory action in %” value (10 mg/kg i.p., 60 min before allergen provocation) was 44% and the “Inhibitory action in %” value (30 mg/kg i.p., 60 min before allergen provocation) was 58%.
